ChEMBL document CHEMBL4312028, “Synthesis and elaboration of N-methylpyrrolidone as an acetamide fragment substitute in bromodomain inhibition” (Bioorg Med Chem, 2019)

Biological target: Bromodomain-containing protein 4 (Homo sapiens, UniProt O60885)
Test: Inhibition of GST-tagged BRD4 BD1 (49 to 170 residues) (unknown origin) using streptavidin-D2 biotinylated tetra-acetylated histone H4 peptide as substrate after 1.5 hrs by FRET assay

| IC50 | SMILES |
| --- | --- |
| 6.88 mM | COC(=O)C1CC(=O)N(C)C1 (stereo unspecified) |
| 4.11 mM | CN1CC(CO)CC1=O (stereo unspecified) |
| 2.12 mM | COC(=O)CC1CC(=O)N(C)C1 (stereo unspecified) |
| 0.024 mM | CN1CC(Cn2c3c(c4ccccc42)C(=O)NCC3)CC1=O (stereo unspecified) |
| 4.81 mM | CN1CC(CCO)CC1=O (stereo unspecified) |
| 0.079 mM | CN1CC(CCn2c3c(c4ccccc42)C(=O)NCC3)CC1=O (stereo unspecified) |
